Reference: patent publication US8999983B2, “Modulators of Hec1 activity and methods therefor” (Taivex Therapeutics Corporation, priority 2011, dated 2015)

Legend:
cyclin B1 and cyclin D1 = assay: Immunoblot of cyclin B1 and cyclin D1; assay type: cell-based; details: 1 μM
Experimental: Immunoblot Analysis: For immunoblotting experiments, cells were plated in a 6-well culture plate and cultured overnight. Cells were incubated with the test compounds for the indicated time and whole cell lysate was harvested by adding 1×SDS-PAGE Sample Buffer (62.5 mM Tris-HCl (pH 6.8 at 25° C.), 2% w/v SDS, 10% glycerol, 50 mM DTT, and 0.01% w/v bromophenol blue or phenol red). Proteins were separated by SDS-PAGE electrophoresis and transferred to PVDF membrane. Protein expression was immunoblotted using various primary antibodies and detected using Immobilon Western Chemiluminescent HRP Substrate (Millipore, Billerica Mass. 01821 USA). Antibodies used include anti-Cleaved Caspase3, (Rabbit, Cell Signaling Technology, Danvers Mass. 01923 USA); anti-PARP (Rabbit, Cell Signaling Technology, Danvers Mass. 01923 USA); anti-MCL-1 (mouse, BD Biosciences, San Jose Calif. 95131 USA); anti-XIAP (rabbit, Cell Signaling Technology, Danvers Mass. 01923 USA); anti-Bcl-2 (mouse, Santa Cruz Biotechnology, Santa Cruz Calif. 95060); anti-Cyclin BI (mouse, BD Biosciences, San Jose Calif. 95131 USA); anti-Cyclin D1 (mouse, Santa Cruz Biotechnology, Santa Cruz Calif. 95060); Anti-Nek2 (mouse, BD Biosciences, San Jose Calif. 95131 USA); Anti-HEC1, (rabbit, GeneTex, Inc., Irvine Calif. 92606 USA); and anti-actin (mouse, Millipore, Billerica Mass. 01821 USA). […]

[1] = Body weight in mouse xenograft studies; assay type: in vivo, nude mice
Experimental: Mouse Xenograft Studies: Xenograft studies adapted from a previous published protocol (Wu et al, Cancer Res. 2008 Oct. 15; 68(20):8393-9). Female BALB/c nude (nu/nu) mice (5-8 weeks) were obtained from Lasco (Industrial Park, Tai-Ping Area, Taichung City, Taiwan). The animals were maintained under specific pathogen-free conditions, and food and water were supplied ad libitum. Housing and all procedures involving animals were performed according to protocols approved by the IACUC in DCB. Nude mice were inoculated with 17-β-estradiol pellets 72 to 96 h before implantation of BT-474 cells. For subcutaneous implantation of BT-474 cells, cells (1×10^7 in matrix gel/animal) were injected subcutaneously into the right subaxillary region. Treatment started when average tumor volume reached about 200 mm^3; mice were treated (p.o., QD/28 cycles in total) with vehicle A (0.5% methylcellulose), or candidate compounds formulated in vehicle A (10-50 mg/kg body weight). Perpendicular diameter measurement of each tumor were made with digital calipers and the volume of the tumor calculated using formula (L×W×W)/2, in which L and W represent the length and the width, respectively. Body weights were measured three times weekly.
The in vivo effectiveness of contemplated compounds in the reduction of tumor volume in nude mice is readily apparent.
Development of resistance to treatment in advanced stage tumors is a well known phenomenon. Activity of select Hec1 inhibitor in such late stage tumors was determined by re-dosing of BT474 xenografted animals that had previously subjected to 35 days of treatment with 110095 (compound 27 of Table 1). Re-treatment with 110095 was starting on day 42 and continued for 21 days.

COCCOc1cnc(Sc2cc(C)c(-c3csc(NC(=O)c4ccncc4)n3)c(C)c2)cn1 [Compound 27, N-(4-{4-(5-(2-methoxyethoxy)pyrazin-2-ylthio)-2,6-dimethylphenyl}thiazol-2-yl)isonicotinamide]
cyclin B1 and cyclin D1 levels (cyclin B1 and cyclin D1): cyclin BI and cyclin D degradation | body weight ([1]; re-treatment of late stage xenografts): body weight remained constant | body weight ([1]; xenograft studies FIG. 7A-7D, nude mice): body weight remained constant
